Results from patent US10363250B2, “Folate receptor binding conjugates of antifolates” (Purdue Research Foundation, priority 2008, dated 2019).
“And” between values parts separate entries of the source, which are not always exact repeats. Identical values can stand only once. Like-named read-outs stand apart in the source and are kept apart here.

Assays:
human FRs (KB cells) = target: T1, human FRs (KB cells) (Homo sapiens, UniProt P15328); assay: Cell-Based Relative Affinity Assay (competition with 3H-FA on adherent KB cells); type: binding; details: for fold weaker affinity / fold lower RA: versus FA (or the Glu-bearing parent); for change of RA with incubation temperature: on ice versus 37° C.
T1 construct: endogenous in cells; host or cells: KB cells
T1 sequence (P15328 25-234): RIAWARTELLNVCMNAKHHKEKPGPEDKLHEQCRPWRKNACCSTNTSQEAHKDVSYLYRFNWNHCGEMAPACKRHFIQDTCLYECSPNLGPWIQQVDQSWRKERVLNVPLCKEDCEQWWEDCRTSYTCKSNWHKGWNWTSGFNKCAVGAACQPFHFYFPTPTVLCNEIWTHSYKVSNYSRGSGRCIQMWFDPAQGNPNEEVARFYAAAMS
Description: Cell culture. Cells were grown continuously as a monolayer using folate-free RPMI medium (FFRPMI) containing 10% heat-inactivated fetal calf serum (HIFCS) at 37° C. in a 5% CO2/95% air-humidified atmosphere with no antibiotics. The HIFCS contained its normal complement of endogenous folates which enabled the cells to sustain growth in this more physiologically-relevant medium (Leamon et al. Proc Natl Acad Sci, USA 1991; 88:5572-6). All cell experiments were performed using FFRPMI containing 10% HIFCS (FFRPMI/HIFCS) as the growth medium unless otherwise specified.
Cell-Based Relative Affinity Assay. The relative affinity of each test article was determined based on a method initially described by Westerhoff et al. Mol Pharm 1995; 48:459-71) with modifications. Briefly, FR-positive KB cells were seeded in 24-well Falcon plates and allowed to form adherent monolayers (>75% confluent) overnight in FFRPMI/HIFCS. […] Cells were incubated for 1 h on ice or in an incubator at 37° C. (as specified in the figure legends) and then rinsed 3 times with 0.5 mL of PBS. Five hundred microliters of 1% sodium dodecyisulfate in PBS were added to each well; after 5 min, cell lysates were collected, transferred to individual vials containing 5 mL of scintillation cocktail, and then counted for radioactivity. […] Relative affinities were defined as described above.
(§1) Relative Affinity Assay Format. The in vitro RA assay described within measures a ligand's ability to compete with FA for binding to FRs. To date, cultured cells have most commonly been used as the FR source. However, herein described is the evaluation of the use of a cell-free, immobilized FR plate system for this assay. This latter method utilized a microtiter plate to which commercially-available bovine milk soluble FBP had been chemically anchored. Similar to the cell-based method, ^3H-FA can compete directly with increasing concentrations of test article for binding to the attached FRs; however, unlike the cell-based method, bound radiolabel can be conveniently “stripped” from the plate by rinsing with a mildly acidic saline solution. […] Likewise, values lower than unity reflect weaker affinity, and values higher than unity reflect stronger affinity.

Folate Receptor = Folate Receptor (Homo sapiens, UniProt P15328); details: Table 1 footnote (a): Westerhoff et al. 1995; cited from earlier work
Folate Receptor, sequence (P15328 25-234): as above

[1] = system: human KB tumor cells xenografts; assay: Activity against subcutaneous KB tumors; type: in vivo, mice; details: 2 μmol/kg TIW/2 weeks
Description: Effect On Transplanted KB Tumors. Mice are injected, subcutaneously with human KB tumor cells xenografts.

KB cells = assay: Activity against KB cells (72 h continuous assay); type: cell-based; details: Homo sapiens
[2] = target: bovine milk soluble folate binding protein (sFBP) (Bos taurus, UniProt P02702); details: plate-anchored bovine milk sFBP, cold incubation, absence of serum
bovine milk soluble folate binding protein (sFBP), sequence (P02702 20-234): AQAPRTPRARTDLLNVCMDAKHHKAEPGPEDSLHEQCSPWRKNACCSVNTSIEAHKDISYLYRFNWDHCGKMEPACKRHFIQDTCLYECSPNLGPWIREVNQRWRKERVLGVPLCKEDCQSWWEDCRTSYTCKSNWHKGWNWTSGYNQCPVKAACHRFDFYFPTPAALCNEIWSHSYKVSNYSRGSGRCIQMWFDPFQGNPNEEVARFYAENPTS
Excerpt: as §1

[3] = Remaining in solution during the RA assay period; type: physicochemical; details: even at 30 μM, throughout the assay period
Excerpt: It is further appreciated that among the folate analogs, it was interesting to observe the importance of having a charged moiety in close proximity to the Pte group. For example, the RA value increased 90 to>300-fold when a Glu residue was attached to Pte, and N^10-propargyl 5,8-dideazapteroic acid, respectively. […] But, two exceptions were found. […] Therefore, without being hound by theory, it is believed that the lower RA value observed for EC216 may result from steric interference caused by the closer proximity of the drug (DAVLBH) to the Pte unit.

[4] = Table 1, adherent KB cells, 10% serum, 37° C., FA = 1
[5] = KB cells, 10% serum (10% serum/FDRPMI)
[6] = Table 2, adherent KB cells, 10% serum, 37° C., FA = 1

## Nc1nc2c(c(=O)[nH]1)N(C=O)C(CNc1ccc(C(=O)N[C@@H](CCC(=O)O)C(=O)O)cc1)CN2 (stereo partly drawn) [5-formyl-tetrahydrofolate, 5-formyltetrahydrofolate]
Human FRs (KB cells); KB cells, 10% serum, 37° C.
  fold weaker affinity / fold lower RA: 125
Human FRs (KB cells); Table 1, 37° C., 10% serum
  Fold Weaker Affinity from FA: 125
Human FRs (KB cells); Table 1, KB cells, FA = 1
  Relative Binding Affinity (0° C.): 0.15
Human FRs (KB cells); [4]
  Relative Binding Affinity (37° C.): 0.008
Folate Receptor
  Relative Binding Affinity (0° C.), value in parentheses: 0.1

## CN1c2c(nc(N)[nH]c2=O)NCC1CNc1ccc(C(=O)N[C@@H](CCC(=O)O)C(=O)O)cc1 (stereo partly drawn) [5-methyl-tetrahydrofolate, 5-methyltetrahydrofolate]
Human FRs (KB cells); KB cells, 10% serum, 37° C.
  fold weaker affinity / fold lower RA: 14
Human FRs (KB cells); Table 1, 37° C., 10% serum
  Fold Weaker Affinity from FA: 14
Human FRs (KB cells); [4]
  Relative Binding Affinity (37° C.): 0.070
Folate Receptor
  Relative Binding Affinity (0° C.), value in parentheses: (0.35)^(a)

## C#CCN(Cc1ccc2nc(N)[nH]c(=O)c2c1)c1ccc(C(=O)N[C@@H](CCC(=O)O)C(=O)O)cc1 [CB3717, N10-propargyl-5,8-dideazafolic acid]
Human FRs (KB cells); [5]
  RA (relative affinity): 0.148
Human FRs (KB cells); KB cells, 10% serum, 37° C.
  RA / competitive binding in words: equal to that of FA
Human FRs (KB cells); Table 1, 37° C., 10% serum
  Fold Weaker Affinity from FA: 1.0
Human FRs (KB cells); [4]
  Relative Binding Affinity (37° C.): 1.000
[1]
  complete responses: 0/5
KB cells; FIG. 9 Panel A
  IC50: 0.005 µM
KB cells; FIG. 9 Panel B
  IC50: 0.019 µM

## C#CCN(Cc1ccc2nc(N)[nH]c(=O)c2c1)c1ccc(C(=O)O)cc1 [Des-glutamyl CB3717, N^10-propargyl 5,8-dideazapteroic acid]
Human FRs (KB cells); KB cells, 10% serum, 37° C.
  fold weaker affinity / fold lower RA: > 300
Human FRs (KB cells); Table 1, 37° C., 10% serum
  Fold Weaker Affinity from FA: 500
Human FRs (KB cells); [4]
  Relative Binding Affinity (37° C.): 0.002

## Nc1nc2ncc(CNc3ccc(C(=O)N[C@@H](CCC(=O)NCCNC(=S)Nc4ccc(-c5c6ccc(=O)cc-6oc6cc(O)ccc56)c(C(=O)O)c4)C(=O)O)cc3)nc2c(=O)[nH]1 [EC17, Pte-γGlu-eda-FITC]
Human FRs (KB cells); Table 2, 37° C., 10% serum
  Fold Weaker Affinity form FA: 1.2
Human FRs (KB cells); Table 2, KB cells, FA = 1
  Relative Binding Affinity (0° C.): 0.29
Human FRs (KB cells); [6]
  Relative Binding Affinity (37° C.): 0.45
Human FRs (KB cells); no serum
  change of RA with incubation temperature: increased with temperature

## Nc1nc2ncc(CNc3ccc(C(=O)N[C@@H](CCC(=O)NC[C@H](N)C(=O)N[C@@H](CC(=O)O)C(=O)N[C@@H](CS)C(=O)O)C(=O)O)cc3)nc2c(=O)[nH]1 [EC20, Pte-γGlūβDpr-Asp-Cys]
Human FRs (KB cells); Table 2, 37° C., 10% serum
  Fold Weaker Affinity form FA: 1.1
Human FRs (KB cells); [6]
  Relative Binding Affinity (37° C.): 0.92

## CO[C@@]12[C@H](COC(N)=O)C3=C(C(=O)C(C)=C(NCCSSC[C@H](NC(=O)CC[C@@H](NC(=O)c4ccc(NCc5cnc6nc(N)[nH]c(=O)c6n5)cc4)C(=O)O)C(=O)O)C3=O)N1C[C@@H]1N[C@@H]12 [EC72, Pte-γGlu-Cys-L-MMC]
Human FRs (KB cells); Table 2, 37° C., 10% serum
  Fold Weaker Affinity form FA: 1.5
Human FRs (KB cells); Table 2, KB cells, FA = 1
  Relative Binding Affinity (0° C.): 0.53
Human FRs (KB cells); [6]
  Relative Binding Affinity (37° C.): 0.59
Human FRs (KB cells); no serum
  change of RA with incubation temperature: increased with temperature

## CC[C@]1(O)CC2CN(CCc3c([nH]c4ccccc34)[C@@](C(=O)OC)(c3cc4c(cc3OC)N(C)[C@H]3[C@@](O)(C(=O)N/N=C(\C)c5ccc(N6C(=O)CC(SC[C@H](NC(=O)[C@H](CC(=O)O)NC(=O)[C@H](CC(=O)O)NC(=O)[C@H](CCCNC(=N)N)NC(=O)[C@H](CC(=O)O)NC(=O)CC[C@H](NC(=O)c7ccc(NCc8cnc9nc(N)[nH]c(=O)c9n8)cc7)C(=O)O)C(=O)O)C6=O)cc5)[C@H](O)[C@]5(CC)C=CCN6CC[C@]43[C@@H]65)C2)C1 (stereo partly drawn) [EC140, EC119-Hyd-DAVLBH]
Human FRs (KB cells); [5]
  RA (relative affinity): 0.50
Human FRs (KB cells); KB cells, 37° C., no serum
  RA (relative affinity): 0.12
Human FRs (KB cells); KB cells, serum versus no serum
  fold change of RA with serum versus absence of serum: 4 and 4.1
Human FRs (KB cells); Table 2, 37° C., 10% serum
  Fold Weaker Affinity form FA: 2.0
Human FRs (KB cells); [6]
  Relative Binding Affinity (37° C.): 0.50

## CC[C@]1(O)CC2CN(CCc3c([nH]c4ccccc34)[C@@](C(=O)OC)(c3cc4c(cc3OC)N(C)[C@H]3[C@@](O)(C(=O)NNC(=O)OCCSSC[C@H](NC(=O)[C@H](CC(=O)O)NC(=O)[C@H](CC(=O)O)NC(=O)[C@H](CCCNC(=N)N)NC(=O)[C@H](CC(=O)O)NC(=O)CC[C@H](NC(=O)c5ccc(NCc6cnc7nc(N)[nH]c(=O)c7n6)cc5)C(=O)O)C(=O)O)[C@H](O)[C@]5(CC)C=CCN6CC[C@]43[C@@H]65)C2)C1 (stereo partly drawn) [EC145, EC119-L-DAVLBH]
Human FRs (KB cells)
  Fold Weaker Affinity form FA: 2.1
  Relative Binding Affinity (37° C.): 0.47
  fold change of RA with serum versus absence of serum: 2.4
[2]
  RA (relative affinity): 0.12
[1]
  complete responses: 2/5

## CC[C@]1(O)CC2CN(CCc3c([nH]c4ccccc34)[C@@](C(=O)OC)(c3cc4c(cc3OC)N(C)[C@H]3[C@@](O)(C(=O)NNC(=O)OCCSSC[C@H](NC(=O)c5ccc(NCc6cnc7nc(N)[nH]c(=O)c7n6)cc5)C(=O)O)[C@H](O)[C@]5(CC)C=CCN6CC[C@]43[C@@H]65)C2)C1 (stereo partly drawn) [EC216, Pte-Cys-L-DAVLBH]
Human FRs (KB cells); KB cells, 10% serum, 37° C., shortened spacer
  fold decrease in RA versus EC145: 10
Human FRs (KB cells); Table 2, 37° C., 10% serum
  Fold Weaker Affinity form FA: 22
Human FRs (KB cells); [6]
  Relative Binding Affinity (37° C.): 0.046
[3]
  remaining in solution: remain in solution

## C#CCN(Cc1ccc2nc(N)[nH]c(=O)c2c1)c1ccc(C(=O)O)cc1 [EC283]
Human FRs (KB cells); [5]
  RA (relative affinity): 0.002

## Nc1nc2ncc(CNc3ccc(C(=O)N[C@@H](CCC(=O)O)C(=O)O)cc3)nc2c(=O)[nH]1 [Folic Acid]
Human FRs (KB cells); 0 to 100% sera
  variation of calculated RA values among serum conditions: 13%

## CN(Cc1cnc2nc(N)[nH]c(=N)c2n1)c1ccc(C(=O)N[C@@H](CCC(=O)O)C(=O)O)cc1 [Methotrexate]
Human FRs (KB cells); KB cells, 10% serum, 37° C.
  fold weaker affinity / fold lower RA: 50
Human FRs (KB cells); Table 1, 37° C., 10% serum
  Fold Weaker Affinity from FA: 50
Human FRs (KB cells); Table 1, KB cells, FA = 1
  Relative Binding Affinity (0° C.): 0.000
Human FRs (KB cells); [4]
  Relative Binding Affinity (37° C.): 0.018
Folate Receptor
  Relative Binding Affinity (0° C.), value in parentheses: 0.008

## Nc1nc2[nH]cc(CCc3ccc(C(=O)N[C@@H](CCC(=O)O)C(=O)O)cc3)c2c(=O)[nH]1 [Pemetrexed, N-(4-(2-(2-amino-4,7-dihydro-4-oxo-3H-pyrrolo[2,3-D]pyrimidin-5-yl)ethyl)benzoyl]-L-glutamic acid]
Human FRs (KB cells); Table 1, 37° C., 10% serum
  Fold Weaker Affinity from FA: 500
Human FRs (KB cells); Table 1, KB cells, FA = 1
  Relative Binding Affinity (0° C.): 0.26
Human FRs (KB cells); [4]
  Relative Binding Affinity (37° C.): 0.002
Folate Receptor
  Relative Binding Affinity (0° C.), value in parentheses: 1.5

## Nc1nc2ncc(C(=O)O)nc2c(=O)[nH]1 [Pterin-6-carboxylate]
Human FRs (KB cells); KB cells, 10% serum, 37° C.
  RA / competitive binding in words: failed to block
Human FRs (KB cells); [4]
  Relative Binding Affinity (37° C.): 0.000

## Nc1nc2ncc(CNc3ccc(C(=O)O)cc3)nc2c(=O)[nH]1 [Pteroic Acid]
Human FRs (KB cells); KB cells on ice / cold incubation, absence of serum
  RA (relative affinity): 0.42
Human FRs (KB cells); KB cells on ice, no serum
  fold weaker affinity than FA: 2.4
Human FRs (KB cells); KB cells, 10% serum, 37° C., listed as Pte
  fold weaker affinity / fold lower RA: 91 and 90
Human FRs (KB cells); KB cells, 37° C., no serum
  RA (relative affinity): 0.01
  fold weaker affinity than FA: 100
Human FRs (KB cells); Table 1, 37° C., 10% serum
  Fold Weaker Affinity from FA: 91
Human FRs (KB cells); Table 1, KB cells, FA = 1
  Relative Binding Affinity (0° C.): 0.42
Human FRs (KB cells); [4]
  Relative Binding Affinity (37° C.): 0.011

## Cc1cc2nc3c(=O)[nH]c(=O)nc-3n(C[C@H](O)[C@H](O)[C@H](O)CO)c2cc1C [riboflavin]
Human FRs (KB cells); 300-fold molar excess, KB cells
  competition with binding of 3H-FA: not able to compete
Human FRs (KB cells); KB cells, 10% serum, 37° C.
  RA / competitive binding in words: very low
